Values of other authors, collected in patent US10941351B2, “Layer-separation method of spent caustic solution” (SK Innovation Co., Ltd., priority 2016, dated 2021).

Conditions: at 25° C.

Water solubility: 0.46 g/L
SMILES: CCCCCCCCO [n-Octanol, n-octanol]
